One assay concerns the target T1, SW1573 HiBiT-KRASG12C (Homo sapiens, UniProt P01116, G12C).
T1 construct: expressed in transfected cells
Description: HiBiT degradation assay (G12C), SW1573 HiBiT-KRASG12C cells.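 As to DC50: Letter grades: C is 1000 to 3000 nM and D is above 3000 nM.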 In kind it is cell-based. The following applies: 24 hours treatment. On the procedure:
Reagents. SW1573 (CRL-2170), AsPC-1 (CRL-1682), and SW620 (CCL-227) cells were purchased from ATCC. SW1573 cells are homozygous for the G12C mutation in KRAS, AsPC-1 cells are homozygous for the G12D mutation, and SW620 cells are homozygous for the G12V mutation. SW1573 cells were cultured in DMEM+F12+Glutamax (+Sodium Bicarbonate, +sodium pyruvate, ThermoFisher scientific, #10565) supplemented with 10% FBS (ThermoFisher scientific, #2060357) and 1% Antibiotic-Antimycotic (ThermoFisher scientific, #15240096). AsPC-1 cells were cultured in GIBCO RPMI-1640 (ThermoFisher scientific, catalog #61870-036 with Glutamax, No HEPES, No Na Pyruvate) supplemented with 10% FBS (ThermoFisher scientific, catalog #2060357) and 1× Penicillin-Streptomycin (ThermoFisher scientific, catalog #15140122, 10000 U/ml, 100×). SW620 cells were cultured in DMEM Glutamax (ThermoFisher scientific, catalog #10566016) supplemented with 10% FBS (ThermoFisher scientific, catalog #2060357) and 1× Penicillin-Streptomycin (ThermoFisher scientific, catalog #15140122, 10000 U/ml, 100×). For degradation assays, 384 well plates were used. Alamar blue was purchased from ThermoFisher scientific (A50101) and used according to manufacturer instructions. The Nano-Glo® HiBiT Lytic Detection System and Nano-Glo® HiBiT Blotting System were purchased from Promega (#N3050 and #N2410) and used according to manufacturer instructions.
HiBiT-tagged cell line generation. To create the SW1573 HiBiT-KRASG12C cell line, the nucleotide sequence encoding the 11 amino acid HiBiT tag from Promegal was appended to the N-terminus of the KRASG12C coding sequence. This synthesized DNA was cloned into a modified pcDNA3.1 vector under the control of the thymidine kinase (TK) promoter. This HiBiT-KRASG12C expressing plasmid was transfected into parental SW1573 cells and colonies were selected using 400 μg/mL zeocin. The resulting clonal lines were screened for expression of HiBiT-KRASG12C protein using Nano-Glo® HiBiT Blotting System. A luminescent band of the correct size for HiBiT-KRASG12C was detected in several clones. Clone E6 was selected for further studies.
HiBiT degradation assays (G12C and G12D). Either SW1573 HiBiT-KRasG12C or AsPC-1 HiBiT-KRasG12D cells were plated at 9000 or 15,000 cells/well in a 384 well plate (Corning #3770). Compounds of the present disclosure and positive controls were diluted in the appropriate cell media and applied to the plated cells resulting in a final concentration titration of 10 μM to 508 pM in 0.5% DMSO. Gambogic acid was used as a positive control for cytotoxicity and titrated from 10 μM to 78 nM. All assays were performed in triplicate. Cells were treated with compounds for 24 hours at 37° C. in an incubator containing 5% CO2. Following treatment, alamar blue was used to determine if any compounds led to a loss in cell viability after 24 hours. The 10× alamar blue reagent was added to a final concentration of 1× as recommended by the manufacturer and cells were returned to the incubator for 4 hours. Plates were then allowed to equilibrate to room temperature and fluorescence was measured using a Perkin-Elmer EnVision. After completion of the fluorescence read, the liquid from each well was removed and the cells were washed with PBS. The Nano-Glo® HiBiT detection reagent was prepared according to the manufacturer's instructions and added to each well after the PBS wash was removed. Following incubation at room temperature for 45 minutes, the luminescence was read using the ultra-sensitive luminescence aperture on the Envision instrument.
Data analysis. Fluorescence values from the alamar blue treatment were normalized to the DMSO-only control for each compound titration. […]

In the next assay the target is T2, AsPC-1 HiBiT-KRASG12D (Homo sapiens, UniProt P01116, G12D).
T2 construct: insert the HiBiT tag onto the N-terminus of one or more of the endogenous KRAS alleles; endogenous in cells; host or cells: AsPC-1 (ATCC CRL-1682), CRISPR-Cas9 knock-in clone, one tagged allele
T2 sequence (P01116 1-188 isoform P01116-2 G12D): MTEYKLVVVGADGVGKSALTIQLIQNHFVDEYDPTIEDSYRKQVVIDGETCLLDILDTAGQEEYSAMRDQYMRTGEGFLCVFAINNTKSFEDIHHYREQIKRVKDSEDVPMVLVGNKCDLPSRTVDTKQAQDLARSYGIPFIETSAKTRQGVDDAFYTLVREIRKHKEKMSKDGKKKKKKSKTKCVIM
Description: HiBiT degradation assay (G12D), AsPC-1 HiBiT-KRASG12D cells. In kind it is cell-based. Particulars: 24 hours treatment; for Dmax: ASPC1, AsPC-1 HiBiT-KRASG12D cells, maximum degradation observed; for DC50: AsPC-1 HiBiT-KRASG12D cells, HiBiT luminescence. In outline:
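HiBiT-KRAS abundance was read as Nano-Glo HiBiT lytic luminescence (45 min, room temperature) after a PBS wash. Before that, a 4 h alamar blue fluorescence read, normalized to DMSO, monitored viability. Treatment lasted 24 hours at 37 °C, in triplicate, using AsPC-1 cells with endogenous N-terminally HiBiT-tagged KRAS G12D.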
On the technique in general: HiBiT is a short tag that completes a luciferase, so light tracks the accessible tagged protein.

For orientation: DC50 means the midpoint of the concentration-degradation curve. Read a low DC50 as degradation at low concentration. Usually Dmax stands for the greatest extent of degradation seen. The low end stands for a partial loss of target, the high end for a fuller loss of target.

T1 sequence (P01116 1-188 isoform P01116-2 G12C): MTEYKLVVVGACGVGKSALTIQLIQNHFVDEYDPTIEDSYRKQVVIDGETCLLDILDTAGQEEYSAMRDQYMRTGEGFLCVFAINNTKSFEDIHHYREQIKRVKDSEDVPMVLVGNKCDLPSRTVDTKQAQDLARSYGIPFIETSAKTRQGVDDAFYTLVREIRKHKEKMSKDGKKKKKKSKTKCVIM

As for `CCc1cccc2cc(O)cc(-c3ncc4c(N5CC6CCC(C5)N6)nc(OC[C@]56CCCN5[C@@H](COCC(=O)N[C@H](C(=O)N5C[C@H](O)C[C@H]5C(=O)N[C@@H](C)c5ccc(-c7scnc7C)cc5)C(C)(C)C)CC6)nc4c3F)c12` [Compound 1, (2S,4R)-1-[(2S)-2-[[2-[[(3R,8R)-8-[[4-(3,8-diazabicyclo[3.2.1]octan-3-yl)-7-(8-ethyl-3-hydroxy-1-naphthyl)-8-fluoro-pyrido[4,3-d]pyrimidin-2-yl]oxymethyl]-1,2,3,5,6,7-hexahydropyrrolizin-3-yl]methoxy]acetyl]amino]-3,3-dimethyl-butanoyl]-4-hydroxy-N-[(1S)-1-[4-(4-methylthiazol-5-yl)phenyl]ethyl]pyrrolidine-2-carboxamide], the DC50 was above 3000 nM on SW1573 HiBiT-KRASG12C (HiBiT luminescence) and 600 to 1000 nM at AsPC-1 HiBiT-KRASG12D. The greatest degradation seen (Dmax) is 20 to 60% on SW1573 HiBiT-KRASG12C (maximum degradation observed) and 80 to 100% on AsPC-1 HiBiT-KRASG12D.

At AsPC-1 HiBiT-KRASG12D, `CCc1cccc2cc(O)cc(-c3ncc4c(N5CC6CCC(C5)N6)nc(OC[C@@]56CCCN5[C@H](CN5CCC(F)(COc7cc([C@@H](C(=O)N8C[C@H](O)C[C@H]8C(=O)N[C@@H](C)c8ccc(-c9scnc9C)cc8)C(C)C)on7)CC5)CC6)nc4c3F)c12` [Compound 336, (2S,4R)-1-[(2S)-2-[3-[[1-[[(3S,8S)-8-[[4-(3,8-diazabicyclo[3.2.1]octan-3-yl)-7-(8-ethyl-3-hydroxy-1-naphthyl)-8-fluoro-pyrido[4,3-d]pyrimidin-2-yl]oxymethyl]-1,2,3,5,6,7-hexahydropyrrolizin-3-yl]methyl]-4-fluoro-4-piperidyl]methoxy]isoxazol-5-yl]-3-methyl-butanoyl]-4-hydroxy-N-[(1S)-1-[4-(4-methylthiazol-5-yl)phenyl]ethyl]pyrrolidine-2-carboxamide] yielded a Dmax of 20 to 60% and a DC50 of 1000 to 3000 nM.

On AsPC-1 HiBiT-KRASG12D, `CCc1cccc2cc(O)cc(-c3ncc4c(N5CC6CCC(C5)N6)nc(OCCN5CCC(F)(COc6cc([C@H](C(=O)N7C[C@H](O)C[C@H]7C(=O)N[C@@H](C)c7ccc(-c8scnc8C)cc7)C(C)C)on6)CC5)nc4c3F)c12` [Compound 337, (2S,4R)-1-[(2R)-2-{3-[(1-{2-[(4-{3,8-diazabicyclo[3.2.1]octan-3-yl}-7-(8-ethyl-3-hydroxynaphthalen-1-yl)-8-fluoropyrido[4,3-d]pyrimidin-2-yl)oxy]ethyl}-4-fluoropiperidin-4-yl)methoxy]-1,2-oxazol-5-yl}-3-methylbutanoyl]-4-hydroxy-N-[(1S)-1-[4-(4-methyl-1,3-thiazol-5-yl)phenyl]ethyl]pyrrolidine-2-carboxamide] registered a Dmax of 80 to 100% and a DC50 below 600 nM.

At AsPC-1 HiBiT-KRASG12D, `CCc1cccc2cc(O)cc(-c3ncc4c(N5CC6CCC(C5)N6)nc(OC[C@]56CCCN5[C@H](COC(=O)N5CC7(C5)CN(c5cc([C@H](C(=O)N8C[C@H](O)C[C@H]8C(=O)N[C@@H](C)c8ccc(-c9scnc9C)cc8)C(C)C)on5)C7)CC6)nc4c3F)c12` [Compound 340, [(3S,8R)-8-[[4-(3,8-diazabicyclo[3.2.1]octan-3-yl)-7-(8-ethyl-3-hydroxy-1-naphthyl)-8-fluoro-pyrido[4,3-d]pyrimidin-2-yl]oxymethyl]-1,2,3,5,6,7-hexahydropyrrolizin-3-yl]methyl 6-[5-[(1S)-1-[(2S,4R)-4-hydroxy-2-[[(1S)-1-[4-(4-methylthiazol-5-yl)phenyl]ethyl]carbamoyl]pyrrolidine-1-carbonyl]-isobutyl]isoxazol-3-yl]-2,6-diazaspiro[3.3]heptane-2-carboxylate] had a Dmax of 80 to 100% and a DC50 below 600 nM.

`CCc1cccc2cc(O)cc(-c3ncc4c(N5CC6CCC(C5)N6)nc(OC[C@@]56CCCN5[C@H](COC(=O)N5CCN(c7cc([C@@H](C(=O)N8C[C@H](O)C[C@H]8C(=O)N[C@@H](C)c8ccc(-c9scnc9C)cc8)C(C)C)on7)[C@H](C)C5)CC6)nc4c3F)c12` [Compound 341, [(3S,8S)-8-[[4-(3,8-diazabicyclo[3.2.1]octan-3-yl)-7-(8-ethyl-3-hydroxy-1-naphthyl)-8-fluoro-pyrido[4,3-d]pyrimidin-2-yl]oxymethyl]-1,2,3,5,6,7-hexahydropyrrolizin-3-yl]methyl (3R)-4-[5-[(1S)-1-[(2S,4R)-4-hydroxy-2-[[(1S)-1-[4-(4-methylthiazol-5-yl)phenyl]ethyl]carbamoyl]pyrrolidine-1-carbonyl]-isobutyl]isoxazol-3-yl]-3-methyl-piperazine-1-carboxylate] registered a 50% degradation concentration (DC50) at AsPC-1 HiBiT-KRASG12D above 3000 nM.

As for `CCc1cccc2cc(O)cc(-c3ncc4c(N5CC6CCC(C5)N6)nc(OC[C@@H]5CC[C@]6(COC(=O)N7CCN(c8cc([C@H](C(=O)N9C[C@H](O)C[C@H]9C(=O)N[C@@H](C)c9ccc(-c%10scnc%10C)cc9)C(C)C)on8)CC7)CCCN56)nc4c3F)c12` [Compound 342, [(3S,8S)-3-[[4-(3,8-diazabicyclo[3.2.1]octan-3-yl)-7-(8-ethyl-3-hydroxy-1-naphthyl)-8-fluoro-pyrido[4,3-d]pyrimidin-2-yl]oxymethyl]-1,2,3,5,6,7-hexahydropyrrolizin-8-yl]methyl 4-[5-[(1R)-1-[(2S,4R)-4-hydroxy-2-[[(1S)-1-[4-(4-methylthiazol-5-yl)phenyl]ethyl]carbamoyl]pyrrolidine-1-carbonyl]-isobutyl]isoxazol-3-yl]piperazine-1-carboxylate], at AsPC-1 HiBiT-KRASG12D, the Dmax lay in the range of 80 to 100% and the DC50 is below 600 nM.

As for `CCc1cccc2cc(O)cc(-c3ncc4c(N5CC6CCC(C5)N6)nc(OC[C@H]5CC[C@@]6(COC(=O)N7CCN(c8cc([C@H](C(=O)N9C[C@H](O)C[C@H]9C(=O)N[C@@H](C)c9ccc(-c%10scnc%10C)cc9)C(C)C)on8)CC7)CCCN56)nc4c3F)c12` [Compound 343, [(3R,8R)-3-[[4-(3,8-diazabicyclo[3.2.1]octan-3-yl)-7-(8-ethyl-3-hydroxy-1-naphthyl)-8-fluoro-pyrido[4,3-d]pyrimidin-2-yl]oxymethyl]-1,2,3,5,6,7-hexahydropyrrolizin-8-yl]methyl 4-[5-[(1R)-1-[(2S,4R)-4-hydroxy-2-[[(1S)-1-[4-(4-methylthiazol-5-yl)phenyl]ethyl]carbamoyl]pyrrolidine-1-carbonyl]-2-methyl-propyl]isoxazol-3-yl]piperazine-1-carboxylate], at AsPC-1 HiBiT-KRASG12D, the Dmax is 80 to 100% and the DC50 was below 600 nM.

Values taken from US20250206732A1, “COMPOUNDS AND METHODS FOR THE TARGETED DEGRADATION OF KRAS” (Arvinas Operations, Inc., priority 2022, published 2025).
